Experiments:
Experiment in all cases: drug sensitivity score (DSS) (DSS (dimensionless)); higher = more sensitive (stronger drug response)
JHOS2 = system: JHOS2
Outline: (§1)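 Ovarian cancer cell lines, after at least three days of shRNA induction with 100 ng/ml doxycycline, and patient-derived cultures were plated at 1 000 – 1 500 cells per well into 384-well plates pre-loaded with drugs at five concentrations spanning a 10,000-fold range. Plates were then kept for three days at 37 °C and 5.0 % CO2. Viability was measured as CellTiter-Glo luminescence on a PHERAstar FS, and each drug's dose-response curve was reduced to a drug sensitivity score computed by a previously described method.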

FIMM-PDC7 = patient-derived ovarian cancer cells; details: genetic perturbation: none (patient-derived cell culture)
Outline: as §1

OVSAHO = system: OVSAHO
Outline: as §1

Kuramochi = system: Kuramochi
Outline: as §1

FIMM-PDC4 = patient-derived ovarian cancer cells; details: genetic perturbation: none (patient-derived cell culture)
Outline: as §1

FIMM-PDC6 = patient-derived ovarian cancer cells; details: genetic perturbation: none (patient-derived cell culture)
Outline: as §1

FIMM-PDC3 = patient-derived ovarian cancer cells; details: genetic perturbation: none (patient-derived cell culture)
Outline: as §1

FIMM-PDC1 = patient-derived ovarian cancer cells; details: genetic perturbation: none (patient-derived cell culture)
Outline: as §1

FIMM-PDC5 = patient-derived ovarian cancer cells; details: genetic perturbation: none (patient-derived cell culture)
Outline: as §1

[1] = genetic perturbation: DOX-induced PTK7 shRNA knockdown
[2] = genetic perturbation: DOX-induced control shRNA

| Compound | drug sensitivity score (JHOS2; [1]) | drug sensitivity score (JHOS2; [2]) | drug sensitivity score (FIMM-PDC7) | drug sensitivity score (OVSAHO; [1]) | drug sensitivity score (OVSAHO; [2]) | drug sensitivity score (Kuramochi; [1]) | drug sensitivity score (Kuramochi; [2]) | drug sensitivity score (FIMM-PDC4) | drug sensitivity score (FIMM-PDC6) | drug sensitivity score (FIMM-PDC3) | drug sensitivity score (FIMM-PDC1) | drug sensitivity score (FIMM-PDC5) |
| --- | --- | --- | --- | --- | --- | --- | --- | --- | --- | --- | --- | --- |
| COc1c(C)cnc(Cn2cnc3c(Cl)nc(N)nc32)c1C [BIIB021] | 16.5 | 12.6 | 14.6 | < 0 | 8.1 | 10.4 | 0.9 | 18.8 | 13.5 | 12.1 | 12.8 | 18 |
| Cc1noc2c1-c1ccccc1C(c1ccc(Cl)cc1)=N[C@H]2CC(N)=O [CPI-0610] | 5.9 | 4.2 | 5.5 | 7 | 9.5 | 10.5 | 6.1 | 3.9 | 3.1 | 3.7 | 2.1 | 8.7 |
| CCN(CC)CCOc1ccc(C(=C(Cl)c2ccccc2)c2ccccc2)cc1 [Clomifene] | 6.9 | 4.1 | 7 | 5.2 | 4.2 | 5.45 | 2 | 7.5 | 5.2 | 5.7 | 7.05 | 8 |
| Nc1ncn([C@@H]2O[C@H](CO)[C@@H](O)[C@H]2O)c(=O)n1 [Azacitidine] | 2.2 | 3.2 | 9.3 | 3.8 | < 0 | 1.05 | 0.6 | 2.8 | 7.7 | 5.2 | 4.15 | 6.4 |
| Cc1sc2c(c1C)C(c1ccc(Cl)cc1)=N[C@@H](CC(=O)Nc1ccc(O)cc1)c1nnc(C)n1-2 [Birabresib] | 9.6 | 8.1 | 8.3 | 7.3 | 13.4 | 13.9 | 4.8 | 5.6 | 3.7 | 4.3 | 4.2 | 12.7 |
| NC(=O)N1CCC(CC(=O)N2CCC([C@H]3c4ncc(Br)cc4CCc4cc(Cl)cc(Br)c43)CC2)CC1 [Lonafarnib] | 5.5 | 9 | 10 | 9.4 | 9.9 | 8.85 | 8.7 | 6.3 | 9.8 | 9.3 | 9.45 | 7 |
| O=C(Nc1ccc2[nH]nc(-c3ccncc3)c2c1)[C@@H]1CCN(CC(=O)N2CCN(c3ccc(-c4ncccn4)cc3)CC2)C1 | 4.1 | 12.8 | 10.2 | 13.4 | 8.5 | 12.6 | 8 | 18.4 | 16.7 | 7.4 | 0.35 | 22 |
| CC(=O)[C@]1(O)Cc2c(O)c3c(c(O)c2[C@@H](O[C@H]2C[C@H](N)[C@H](O)[C@H](C)O2)C1)C(=O)c1ccccc1C3=O [Idarubicin] | 7.2 | 6.9 | 8.8 | 6.8 | 4.8 | 5.75 | 6 | 8.2 | 5.7 | 8.1 | 5.1 | 8.7 |
| CC[C@H](NC(=O)[C@H](C)NC)C(=O)N1C[C@@H](O)C[C@H]1Cc1c(-c2[nH]c3cc(F)ccc3c2C[C@@H]2C[C@H](O)CN2C(=O)[C@H](CC)NC(=O)[C@H](C)NC)[nH]c2cc(F)ccc12 [Birinapant] | 17.4 | 16.7 | < 0 | 5.7 | 2.1 | 3.9 | 3.6 | < 0 | 4.1 | 11.7 | 6.4 | 0.6 |
| CC(=O)c1cc2c(o1)C(=O)c1ccccc1C2=O [Napabucasin] | 22 | 19.2 | 17.2 | 18.9 | 16.1 | 16.7 | 17.3 | 15.3 | 14.4 | 21.8 | 10.8 | 13.4 |
| CC(C)[C@H](C(=O)Nc1ccc(C(=O)NO)cc1)c1ccccc1 [AR-42] | 9.1 | 8.5 | 9.8 | 12.4 | 9 | 12.8 | 6.6 | 5.8 | 10.5 | 10 | 9.25 | 10.9 |
| Nc1nc2[nH]cc(CCc3ccc(C(=O)N[C@@H](CCC(=O)O)C(=O)O)cc3)c2c(=O)[nH]1 [Pemetrexed] | 0.4 | < 0 | < 0 | < 0 | 1.5 | 0.6 | 7.9 | < 0 | 1.5 | < 0 | 2.05 | < 0 |
| O=C(Nc1ccncc1)C(=O)c1cn(Cc2ccc(Cl)cc2)c2ccccc12 [Indibulin] | 6.4 | 4.5 | 4.2 | 6.9 | 2.2 | 5.8 | < 0 | 8.8 | 6.5 | 6 | 8.6 | 13.9 |
| Cc1cc(Nc2cc(CN3CCOCC3)c3nc(C)c(Cc4ccc(Cl)cc4F)n3n2)n[nH]1 [Gandotinib] | 7 | 2.7 | 7.2 | 6.6 | 5.1 | 5.2 | 5.6 | 7.4 | 4.6 | 7.1 | 5.25 | 8.6 |
| Cn1c(=O)n(-c2ccc(C(C)(C)C#N)cc2)c2c3cc(-c4cnc5ccccc5c4)ccc3ncc21 [Dactolisib] | 10.3 | 14.1 | 17 | 11.8 | 13.8 | 11.7 | 11.9 | 17.2 | 19 | 11.1 | 10.1 | 21.6 |
| CC(=O)O[C@@]12CO[C@@H]1C[C@H](O)[C@@]1(C)C(=O)[C@H](O)C3=C(C)[C@@H](OC(=O)[C@H](O)[C@@H](NC(=O)OC(C)(C)C)c4ccccc4)C[C@@](O)([C@@H](OC(=O)c4ccccc4)[C@H]21)C3(C)C [Docetaxel] | 20.3 | 12.7 | 7.2 | 7.6 | 13.5 | 18 | 4.4 | 18.8 | 7.4 | 21.6 | 15.6 | 21.5 |

| Compound | drug sensitivity score (JHOS2; [1]) | drug sensitivity score (JHOS2; [2]) | drug sensitivity score (FIMM-PDC7) | drug sensitivity score (OVSAHO; [1]) | drug sensitivity score (OVSAHO; [2]) | drug sensitivity score (Kuramochi; [1]) | drug sensitivity score (Kuramochi; [2]) | drug sensitivity score (FIMM-PDC4) | drug sensitivity score (FIMM-PDC6) | drug sensitivity score (FIMM-PDC3) | drug sensitivity score (FIMM-PDC1) | drug sensitivity score (FIMM-PDC5) |
| --- | --- | --- | --- | --- | --- | --- | --- | --- | --- | --- | --- | --- |
| Cn1cnc2c(F)c(Nc3ccc(Br)cc3Cl)c(C(=O)NOCCO)cc21 [Selumetinib] | 0.7 | 8.6 | 10.3 | 13.5 | 1.7 | 7.5 | 2 | 10 | 7.6 | 4.9 | < 0 | 11.4 |
| CCS(=O)(=O)N1CCN(c2ccc(Nc3ncc(C(N)=O)c(NC4CC4)n3)cc2)CC1 [Cerdulatinib] | 8.2 | < 0 | 5.3 | < 0 | < 0 | < 0 | < 0 | < 0 | < 0 | < 0 | < 0 | < 0 |
| CC(C)n1nc(-c2ccc3oc(N)nc3c2)c2c(N)ncnc21 [Sapanisertib] | 6.9 | 9.3 | 16.3 | 14 | 11.6 | 10.1 | 10.7 | 15.4 | 16.3 | 7.6 | 7.5 | 21.2 |
| NC(=O)Nc1cc(-c2cccc(F)c2)sc1C(=O)N[C@H]1CCCNC1 [AZD7762] | 7.6 | 4.6 | 5.8 | 6.4 | 3.1 | 6 | 2.9 | 8.1 | 6.4 | 9.1 | 7.75 | 7 |
| Nc1ccccc1NC(=O)c1ccc(CNC(=O)OCc2cccnc2)cc1 [Entinostat] | 4.5 | 2.5 | 6.5 | 8.5 | 4.6 | 8.05 | 2.3 | 4.5 | 6.6 | 9 | 7.1 | 8.2 |
| CO[C@H](C(=O)[C@@H](O)[C@@H](C)O)[C@@H]1Cc2cc3cc(O[C@H]4C[C@@H](O[C@@H]5C[C@@H](O)[C@H](O)[C@@H](C)O5)[C@H](O)[C@@H](C)O4)c(C)c(O)c3c(O)c2C(=O)[C@H]1O[C@H]1C[C@@H](O[C@@H]2C[C@@H](O)[C@@H](O[C@@H]3C[C@](C)(O)[C@H](O)[C@@H](C)O3)[C@@H](C)O2)[C@H](O)[C@@H](C)O1 [Plicamycin] | 3.7 | 20.1 | < 0 | 3.5 | 14.6 | 3.45 | 12.6 | 12.6 | < 0 | 4.3 | 15.6 | 15.3 |
| COc1cccc2c1C(=O)c1c(O)c3c(c(O)c1C2=O)C[C@@](O)(C(=O)CO)C[C@@H]3O[C@H]1C[C@H](N)[C@H](O)[C@H](C)O1 [Doxorubicin] | 7 | 7.6 | 6.6 | 5.8 | 4.7 | 5.1 | 5 | 6.8 | 3.7 | 6.4 | 4.7 | 5.4 |
| CC1(C)CCC(c2ccc(Cl)cc2)=C(CN2CCN(c3ccc(C(=O)NS(=O)(=O)c4ccc(N[C@H](CCN5CCOCC5)CSc5ccccc5)c(S(=O)(=O)C(F)(F)F)c4)cc3)CC2)C1 [Navitoclax] | 1.1 | < 0 | 16.4 | 10.1 | < 0 | 1.8 | 4.3 | 6.2 | 21.9 | 5.7 | 4.85 | 19.5 |
| CN[C@@H](C)C(=O)N[C@H](C(=O)N1CCC[C@H]1c1nc(C(=O)c2ccc(F)cc2)cs1)C1CCCCC1 [NVP-LCL161] | 26 | 20.4 | 5.1 | 6 | 4.1 | 3.65 | 4.2 | 1.7 | 6.9 | 15.7 | 14.1 | 2.7 |
| Cc1cc(Nc2cc(N3CCN(C)CC3)nc(Sc3ccc(NC(=O)C4CC4)cc3)n2)n[nH]1 [Tozasertib] | 4.1 | 4.3 | 3.7 | 3.9 | 1.9 | 4.2 | 2.4 | 5.7 | 1.6 | 4.2 | 2.9 | 6.2 |
| NS(=O)(=O)OC[C@@H]1C[C@@H](n2ccc3c(N[C@H]4CCc5ccccc54)ncnc32)C[C@@H]1O [Pevonedistat] | 16.2 | 12.4 | 12.2 | 3.7 | 6.5 | 6.65 | 2.6 | 9.4 | 7.1 | 5.2 | 3.75 | 5.7 |
| CC(=O)O[C@H]1C(=O)[C@@]2(C)[C@H]([C@H](OC(=O)c3ccccc3)[C@]3(O)C[C@H](OC(=O)[C@H](O)[C@@H](NC(=O)c4ccccc4)c4ccccc4)C(C)=C1C3(C)C)[C@]1(OC(C)=O)CO[C@@H]1C[C@@H]2O [Paclitaxel] | 17.3 | 11.7 | 7 | 11.1 | 15.6 | 18.1 | 3.1 | 18.7 | 10.5 | 18.4 | 15.9 | 20.8 |
| CN(C)Cc1ccc(S(=O)(=O)n2ccc(/C=C/C(=O)NO)c2)cc1 [Resminostat] | 7.8 | 7.1 | 7.2 | 9.3 | 6.9 | 9.8 | 4.8 | 4.2 | 8.8 | 8.7 | 6.7 | 10 |
| Nc1ccccc1NC(=O)c1ccc(CNc2nccc(-c3cccnc3)n2)cc1 [Mocetinostat] | 8 | 3.4 | 7.5 | 10 | 3.8 | 9.95 | 4.1 | 7.1 | 8.7 | 9.7 | 6.35 | 12.3 |
| Cc1[nH]nc(C(F)(F)F)c1Cc1sc2c(c1C(=O)N1C[C@](C)(O)CO1)c(=O)n(C)c(=O)n2C(C)C [AZD3965] | < 0 | < 0 | < 0 | 12.1 | < 0 | 0.7 | 3.4 | < 0 | < 0 | < 0 | 2.7 | < 0 |

Source: the supplement of paper PMC9386025
